Tests used:
Clostridium beijerinckii = type: cell-based
Lactobacillus plantarum = type: cell-based

Molecule: CC[C@H]1OC(=O)[C@H](C)[C@@H](O[C@H]2C[C@@](C)(OC)[C@@H](O)[C@H](C)O2)[C@H](C)[C@@H](O[C@@H]2O[C@H](C)C[C@H](N(C)C)[C@H]2O)[C@](C)(O)C[C@@H](C)CN(C)[C@H](C)[C@@H](O)[C@]1(C)O [azithromycin]
- antibiotic susceptibility (disc, zone of clearance) (Clostridium beijerinckii): susceptible
- antibiotic susceptibility (disc, zone of clearance) (Lactobacillus plantarum): susceptible

Molecule: CC1(C)S[C@@H]2[C@H](NC(=O)C(C(=O)O)c3ccccc3)C(=O)N2[C@H]1C(=O)O (stereo partly drawn) [carbenicillin]
- antibiotic susceptibility (disc, zone of clearance) (Clostridium beijerinckii): susceptible
- antibiotic susceptibility (disc, zone of clearance) (Lactobacillus plantarum): resistant

Molecule: Cc1ncc([N+](=O)[O-])n1CCO [metronidazole]
- antibiotic susceptibility (disc, zone of clearance) (Clostridium beijerinckii): susceptible
- antibiotic susceptibility (disc, zone of clearance) (Lactobacillus plantarum): resistance

Molecule: CN[C@H](CC(C)C)C(=O)N[C@H]1C(=O)N[C@@H](CC(N)=O)C(=O)N[C@H]2C(=O)N[C@H]3C(=O)N[C@H](C(=O)N[C@H](C(=O)O)c4cc(O)cc(O)c4-c4cc3ccc4O)[C@H](O)c3ccc(c(Cl)c3)Oc3cc2cc(c3O[C@@H]2O[C@H](CO)[C@@H](O)[C@H](O)[C@H]2O[C@H]2C[C@](C)(N)[C@H](O)[C@H](C)O2)Oc2ccc(cc2Cl)[C@H]1O [vancomycin]
- antibiotic susceptibility (disc, zone of clearance) (Clostridium beijerinckii): susceptible

Molecule: amoxicillin/clavulinic acid
- antibiotic susceptibility (disc, zone of clearance) (Clostridium beijerinckii): susceptible
- antibiotic susceptibility (disc, zone of clearance) (Lactobacillus plantarum): resistant

— patent publication US9765358B2 (priority 2015, dated 2017)
